Laboratory results taken from ChEMBL document CHEMBL4680139, “Antiproliferative activity of diarylnaphthylpyrrolidine derivative via dual target inhibition” (Eur J Med Chem, 2020).

Experiments:
[1] = Toxicity in Swiss albino mouse assessed as absolute and relative kidney weight at 5 to 300 mg/kg, po administered as single dose; assay type: organism-based; conditions: in vivo, dose 5-300 mg/kg
[2] = Toxicity in Swiss albino mouse assessed as WBC level in blood at 50 mg/kg, po administered as single dose (reference value: 17.06 +/- 1.33x10^3/mm3); assay type: organism-based; conditions: in vivo
[3] = Toxicity in Swiss albino mouse assessed as absolute and relative liver weight at 5 to 300 mg/kg, po administered as single dose; assay type: organism-based; conditions: in vivo, dose 5-300 mg/kg
[4] = Toxicity in Swiss albino mouse assessed as morbidity upto 300 mg/kg, po administered as single dose; assay type: organism-based; conditions: in vivo
[5] = Toxicity in Swiss albino mouse assessed as SGOT level in serum at 50 mg/kg, po administered as single dose (reference value: 22.12 +/-1.91 U/L); assay type: organism-based; conditions: in vivo
[6] = Toxicity in Swiss albino mouse assessed as serum protein level at 300 mg/kg, po administered as single dose (reference value: 2.83 +/-0.09 mg/ml); assay type: organism-based; conditions: in vivo
[7] = Toxicity in Swiss albino mouse assessed as SGPT level in serum at 5 mg/kg, po administered as single dose (reference value: 21.81 +/-2.1 U/L); assay type: organism-based; conditions: in vivo
MCF7 [8] = assay: Induction of cell cycle arrest in human MCF-7 cells assessed as accumulation at G2/M phase at 2.17 uM by propidium iodide staining based flow cytometry (reference value: 15.2%); assay type: functional
MCF7 [9] = assay: Induction of apoptosis in human MCF-7 cells assessed as proportion of necrotic cells at 2.17 uM measured after 24 hrs by Annexin V- FITC/propidium iodide staining based flow cytometry (reference value: 5.3%); assay type: functional
[10] = Toxicity in Swiss albino mouse assessed as absolute and relative spleen weight at 5 to 300 mg/kg, po administered as single dose; assay type: organism-based; conditions: in vivo, dose 5-300 mg/kg
MCF7 [11] = assay: Induction of apoptosis in human MCF-7 cells assessed as proportion of early apoptotic cells at 2.17 uM measured after 24 hrs by Annexin V- FITC/propidium iodide staining based flow cytometry (reference value: 0%); assay type: functional
[12] = Toxicity in Swiss albino mouse assessed as absolute and relative brain weight at 5 to 300 mg/kg, po administered as single dose; assay type: organism-based; conditions: in vivo, dose 5-300 mg/kg
[13] = Toxicity in Swiss albino mouse assessed as body weight at 300 mg/kg, po administered as single dose (reference value: 31.62 +/- 1.64 gms); assay type: organism-based; conditions: in vivo

COc1ccc(C(c2ccccc2OCCN2CCCC2)c2cccc3ccccc23)c(OC)c1OC (stereo not drawn)
Activity [1]: Non-Toxic | Activity [2]: 13.46 10^3/mm3 | Activity [3]: Non-Toxic | Activity [4]: Non-Toxic | Activity [5]: 25.42 U/L | Activity [6]: 2.87 mg/mL | Activity [7]: 21.18 U/L | Activity (MCF7 [8]): 12.1% | Activity (MCF7 [9]): 5% | Activity [10]: Non-Toxic | Activity (MCF7 [11]): 0% | Activity [12]: Non-Toxic | Activity [13]: 31.03 g
